Laboratory results taken from ChEMBL document CHEMBL1124182, “Design, synthesis, and properties of (4S)-7-(4-amino-2-substituted-pyrrolidin-1-yl)quinolone-3-carboxylic acids” (J Med Chem, 1988).
≈ marks a conversion by molar mass, not a printed value.

System: Acinetobacter
Test: In vitro Minimum inhibitory concentration against Acinetobacter CMX 669
Assay type: functional
Conditions: Acinetobacter; read-out: MIC

| SMILES | MIC |
| --- | --- |
| O=C(O)c1cn(C2CC2)c2cc(N3CCNCC3)c(F)cc2c1=O [CIPROFLOXACIN] | 0.39 µg/mL (≈ 1.18 µM) |
| C[C@H]1C[C@H](N)CN1c1cc2c(cc1F)c(=O)c(C(=O)O)cn2-c1ccc(F)cc1 | 0.1 µg/mL (≈ 0.25 µM) |

System: Staphylococcus epidermidis
Test: In vitro Minimum inhibitory concentration against Staphylococcus epidermidis 3519
Assay type: functional
Conditions: not given

| SMILES | MIC |
| --- | --- |
| O=C(O)c1cn(C2CC2)c2cc(N3CCNCC3)c(F)cc2c1=O [CIPROFLOXACIN] | 0.78 µg/mL (≈ 2.35 µM) |
| C[C@H]1C[C@H](N)CN1c1cc2c(cc1F)c(=O)c(C(=O)O)cn2-c1ccc(F)cc1 | 0.05 µg/mL (≈ 0.125 µM) |

System: Escherichia coli
Test: Supercoiling inhibition assay using purified DNA gyrase isolated from Escherichia coli H560
Assay type: functional
Conditions: read-out: I50

| SMILES | IC50 |
| --- | --- |
| O=C(O)c1cn(C2CC2)c2cc(N3CCNCC3)c(F)cc2c1=O [CIPROFLOXACIN] | 0.9 µg/mL (≈ 2.72 µM) |

System: not listed separately
Test: (§1) Blood level was evaluated by a disk agar diffusion assay at 2.0 hr when administered at a peroral dose of 25 mg/kg
Assay type: ADME, organism-based
Design: dose 25 mg/kg, route oral
Conditions: mouse, po, read-out: Blood level

| SMILES | concentration at 2 h |
| --- | --- |
| C[C@H]1C[C@H](N)CN1c1cc2c(cc1F)c(=O)c(C(=O)O)cn2-c1ccc(F)cc1 | 400 ng/mL |

System: Mus musculus
Test: (§2) In vivo efficacy against Staphylococcus aureus 10649, in mouse protection tests when administered subcutaneously (sc)
Assay type: functional
Conditions: not given

| SMILES | ED50 |
| --- | --- |
| C[C@H]1C[C@H](N)CN1c1cc2c(cc1F)c(=O)c(C(=O)O)cn2-c1ccc(F)cc1 | 0.8 mg/kg |

System: Staphylococcus aureus
Test: as §2
Assay type: functional
Conditions: not given

| SMILES | ED50 |
| --- | --- |
| O=C(O)c1cn(C2CC2)c2cc(N3CCNCC3)c(F)cc2c1=O [CIPROFLOXACIN] | 1.6 mg/kg |

System: Mus musculus
Test: (§3) Blood level was evaluated by a disk agar diffusion assay at 3.0 hh when administered at a peroral dose of 25 mg/kg
Assay type: functional
Conditions: route oral

| SMILES | Blood level |
| --- | --- |
| O=C(O)c1cn(C2CC2)c2cc(N3CCNCC3)c(F)cc2c1=O [CIPROFLOXACIN] | 0.1 µg/mL |

System: Staphylococcus aureus
Test: In vitro Minimum inhibitory concentration against Staphylococcus aureus CMX 686B
Assay type: functional
Conditions: not given

| SMILES | MIC |
| --- | --- |
| O=C(O)c1cn(C2CC2)c2cc(N3CCNCC3)c(F)cc2c1=O [CIPROFLOXACIN] | 0.39 µg/mL (≈ 1.18 µM) |
| C[C@H]1C[C@H](N)CN1c1cc2c(cc1F)c(=O)c(C(=O)O)cn2-c1ccc(F)cc1 | 0.05 µg/mL (≈ 0.125 µM) |

System: Klebsiella pneumoniae
Test: In vitro Minimum inhibitory concentration against Klebsiella pneumoniae 8045
Assay type: functional
Conditions: not given

| SMILES | MIC |
| --- | --- |
| O=C(O)c1cn(C2CC2)c2cc(N3CCNCC3)c(F)cc2c1=O [CIPROFLOXACIN] | 0.02 µg/mL (≈ 0.0604 µM) |
| C[C@H]1C[C@H](N)CN1c1cc2c(cc1F)c(=O)c(C(=O)O)cn2-c1ccc(F)cc1 | 0.01 µg/mL (≈ 0.025 µM) |

System: not listed separately
Test: (§4) Blood level was evaluated by a disk agar diffusion assay at 0.5 hr when administered at a peroral dose of 25 mg/kg
Assay type: ADME, organism-based
Design: dose 25 mg/kg, route oral
Conditions: mouse, po, read-out: Blood level

| SMILES | concentration at 0.5 h |
| --- | --- |
| C[C@H]1C[C@H](N)CN1c1cc2c(cc1F)c(=O)c(C(=O)O)cn2-c1ccc(F)cc1 | 1000 ng/mL |

System: Streptococcus agalactiae
Test: In vitro Minimum inhibitory concentration against Streptococcus agalactiae CMX 508
Assay type: functional
Conditions: not given

| SMILES | MIC |
| --- | --- |
| O=C(O)c1cn(C2CC2)c2cc(N3CCNCC3)c(F)cc2c1=O [CIPROFLOXACIN] | 0.78 µg/mL (≈ 2.35 µM) |
| C[C@H]1C[C@H](N)CN1c1cc2c(cc1F)c(=O)c(C(=O)O)cn2-c1ccc(F)cc1 | 0.2 µg/mL (≈ 0.501 µM) |

System: Streptococcus pyogenes
Test: In vitro Minimum inhibitory concentration against Streptococcus pyogenes 930
Assay type: functional
Conditions: not given

| SMILES | MIC |
| --- | --- |
| C[C@H]1C[C@H](N)CN1c1cc2c(cc1F)c(=O)c(C(=O)O)cn2-c1ccc(F)cc1 | 0.2 µg/mL (≈ 0.501 µM) |

System: Mus musculus
Test: (§5) In vivo efficacy against Staphylococcus aureus 10649, in mouse protection tests when administered perorally (po)
Assay type: functional
Conditions: not given

| SMILES | ED50 |
| --- | --- |
| C[C@H]1C[C@H](N)CN1c1cc2c(cc1F)c(=O)c(C(=O)O)cn2-c1ccc(F)cc1 | 4.4 mg/kg |

System: Staphylococcus aureus
Test: as §5
Assay type: functional
Conditions: not given

| SMILES | ED50 |
| --- | --- |
| O=C(O)c1cn(C2CC2)c2cc(N3CCNCC3)c(F)cc2c1=O [CIPROFLOXACIN] | 15.5 mg/kg |

System: Staphylococcus aureus
Test: In vitro Minimum inhibitory concentration against Staphylococcus aureus A5177
Assay type: functional
Conditions: not given

| SMILES | MIC |
| --- | --- |
| O=C(O)c1cn(C2CC2)c2cc(N3CCNCC3)c(F)cc2c1=O [CIPROFLOXACIN] | 0.39 µg/mL (≈ 1.18 µM) |
| C[C@H]1C[C@H](N)CN1c1cc2c(cc1F)c(=O)c(C(=O)O)cn2-c1ccc(F)cc1 | 0.05 µg/mL (≈ 0.125 µM) |

System: Escherichia coli
Test: In vitro Minimum inhibitory concentration against Escherichia coli Juhl
Assay type: functional
Conditions: not given

| SMILES | MIC |
| --- | --- |
| C[C@H]1C[C@H](N)CN1c1cc2c(cc1F)c(=O)c(C(=O)O)cn2-c1ccc(F)cc1 | 0.02 µg/mL (≈ 0.0501 µM) |

System: Staphylococcus aureus
Test: In vitro Minimum inhibitory concentration against Staphylococcus aureus 45
Assay type: functional
Conditions: not given

| SMILES | MIC |
| --- | --- |
| O=C(O)c1cn(C2CC2)c2cc(N3CCNCC3)c(F)cc2c1=O [CIPROFLOXACIN] | 0.78 µg/mL (≈ 2.35 µM) |
| C[C@H]1C[C@H](N)CN1c1cc2c(cc1F)c(=O)c(C(=O)O)cn2-c1ccc(F)cc1 | 0.05 µg/mL (≈ 0.125 µM) |

System: Pseudomonas aeruginosa
Test: In vitro Minimum inhibitory concentration against Pseudomonas aeruginosa K799/WT
Assay type: functional
Conditions: not given

| SMILES | MIC |
| --- | --- |
| O=C(O)c1cn(C2CC2)c2cc(N3CCNCC3)c(F)cc2c1=O [CIPROFLOXACIN] | 0.2 µg/mL (≈ 0.604 µM) |
| C[C@H]1C[C@H](N)CN1c1cc2c(cc1F)c(=O)c(C(=O)O)cn2-c1ccc(F)cc1 | 0.78 µg/mL (≈ 1.95 µM) |

System: Mus musculus
Test: (§6) Blood level was evaluated by a disk agar diffusion assay at 1.0 hr when administered at a peroral dose of 25 mg/kg
Assay type: functional
Conditions: route oral

| SMILES | Blood level |
| --- | --- |
| O=C(O)c1cn(C2CC2)c2cc(N3CCNCC3)c(F)cc2c1=O [CIPROFLOXACIN] | 0.8 µg/mL |

System: Pseudomonas aeruginosa
Test: In vitro Minimum inhibitory concentration against Pseudomonas aeruginosa 5007
Assay type: functional
Conditions: not given

| SMILES | MIC |
| --- | --- |
| O=C(O)c1cn(C2CC2)c2cc(N3CCNCC3)c(F)cc2c1=O [CIPROFLOXACIN] | 0.39 µg/mL (≈ 1.18 µM) |
| C[C@H]1C[C@H](N)CN1c1cc2c(cc1F)c(=O)c(C(=O)O)cn2-c1ccc(F)cc1 | 3.1 µg/mL (≈ 7.76 µM) |

System: Mus musculus
Test: Blood level was evaluated by a disk agar diffusion assay at 6.0 hr when administered at a peroral dose of 25 mg/kg
Assay type: functional
Conditions: route oral

| SMILES | Blood level |
| --- | --- |
| O=C(O)c1cn(C2CC2)c2cc(N3CCNCC3)c(F)cc2c1=O [CIPROFLOXACIN] | 0 µg/mL |

System: Streptococcus equinus
Test: In vitro Minimum inhibitory concentration against Streptococcus bovis A5169
Assay type: functional
Conditions: not given

| SMILES | MIC |
| --- | --- |
| O=C(O)c1cn(C2CC2)c2cc(N3CCNCC3)c(F)cc2c1=O [CIPROFLOXACIN] | 1.56 µg/mL (≈ 4.71 µM) |
| C[C@H]1C[C@H](N)CN1c1cc2c(cc1F)c(=O)c(C(=O)O)cn2-c1ccc(F)cc1 | 0.2 µg/mL (≈ 0.501 µM) |

System: Mus musculus
Test: as §1
Assay type: functional
Conditions: route oral

| SMILES | Blood level |
| --- | --- |
| O=C(O)c1cn(C2CC2)c2cc(N3CCNCC3)c(F)cc2c1=O [CIPROFLOXACIN] | 0.3 µg/mL |

System: Mus musculus
Test: In vivo efficacy against Escherichia coli Juhl, in mouse protection tests when administered subcutaneously (sc)
Assay type: functional
Conditions: not given

| SMILES | ED50 |
| --- | --- |
| O=C(O)c1cn(C2CC2)c2cc(N3CCNCC3)c(F)cc2c1=O [CIPROFLOXACIN] | 0.2 mg/kg |

System: not listed separately
Test: as §3
Assay type: ADME, organism-based
Design: dose 25 mg/kg, route oral
Conditions: mouse, po, read-out: Blood level

| SMILES | concentration at 3 h |
| --- | --- |
| C[C@H]1C[C@H](N)CN1c1cc2c(cc1F)c(=O)c(C(=O)O)cn2-c1ccc(F)cc1 | 200 ng/mL |

System: not listed separately
Test: as §6
Assay type: ADME, organism-based
Design: dose 25 mg/kg, route oral
Conditions: mouse, po, read-out: Blood level

| SMILES | concentration at 1 h |
| --- | --- |
| C[C@H]1C[C@H](N)CN1c1cc2c(cc1F)c(=O)c(C(=O)O)cn2-c1ccc(F)cc1 | 800 ng/mL |

System: Enterococcus faecium
Test: In vitro Minimum inhibitory concentration against Streptococcus faecium ATCC 8043
Assay type: functional
Conditions: not given

| SMILES | MIC |
| --- | --- |
| O=C(O)c1cn(C2CC2)c2cc(N3CCNCC3)c(F)cc2c1=O [CIPROFLOXACIN] | 0.39 µg/mL (≈ 1.18 µM) |
| C[C@H]1C[C@H](N)CN1c1cc2c(cc1F)c(=O)c(C(=O)O)cn2-c1ccc(F)cc1 | 0.2 µg/mL (≈ 0.501 µM) |

System: Mus musculus
Test: In vivo efficacy against Escherichia coli Juhl, in mouse protection tests when administered perorally (po)
Assay type: functional
Conditions: not given

| SMILES | ED50 |
| --- | --- |
| O=C(O)c1cn(C2CC2)c2cc(N3CCNCC3)c(F)cc2c1=O [CIPROFLOXACIN] | 1.9 mg/kg |

System: Mus musculus
Test: Blood level was evaluated by a disk agar diffusion assay at 24.0 hr when administered at a peroral dose of 25 mg/kg
Assay type: functional
Conditions: route oral

| SMILES | Blood level |
| --- | --- |
| O=C(O)c1cn(C2CC2)c2cc(N3CCNCC3)c(F)cc2c1=O [CIPROFLOXACIN] | 0 µg/mL |

System: Mus musculus
Test: as §4
Assay type: functional
Conditions: route oral

| SMILES | Blood level |
| --- | --- |
| O=C(O)c1cn(C2CC2)c2cc(N3CCNCC3)c(F)cc2c1=O [CIPROFLOXACIN] | 1.3 µg/mL |

System: Staphylococcus aureus
Test: In vitro Minimum inhibitory concentration against Staphylococcus aureus ATCC 6538P
Assay type: functional
Conditions: not given

| SMILES | MIC |
| --- | --- |
| O=C(O)c1cn(C2CC2)c2cc(N3CCNCC3)c(F)cc2c1=O [CIPROFLOXACIN] | 0.2 µg/mL (≈ 0.604 µM) |
| C[C@H]1C[C@H](N)CN1c1cc2c(cc1F)c(=O)c(C(=O)O)cn2-c1ccc(F)cc1 | 0.05 µg/mL (≈ 0.125 µM) |
